{
  "source": "patent US20260335294A1",
  "about": "“TREATING CONGENITAL DISORDERS OF GLYCOSYLATION” (Mayo Foundation for Medical Education and Research, priority 2022, published 2026)",
  "format_in_all_cases": "in vivo, human",
  "key": {"[1]": {"tested_on": "PMM2-CDG patients", "assay": "Goal attainment scale (GAS) in patients on epalrestat", "procedure": "(§1) Two patients were started on epalrestat on single patient investigational new drug (IND) (P5 IRB: 19-010017; IND #145262; P6 Protocol PMM2-CDG-001/A). Epalrestat was initiated on the parents' own initiative in the third patient (P7). Two patients were in their second year of epalrestat treatment, while the third, was in the 3rd year of treatment. Physical, neurological, and biochemical examinations were performed in 3 PMM2-CDG patients at baseline, and at every three months after the start of the epalrestat treatment. Patients underwent NPCRS phenotype severity assessment and biological sampling at every visit. Epalrestat (Ono Pharmaceuticals, Osaka, Japan) was taken orally 3 times per day (TID) before meals in a divided dose, with dosage escalation throughout the treatment. The pharmacological profile of epalrestat was as described elsewhere (Ligezka et al, Ann. Neurol., 90(6):887-900 (2021)). The starting dosage in P5 and P6 was 0.8 mg/kg/day, while P7 was started on 0.5 mg/kg/day due to their young age. P7 dosage was increased to 0.8 mg/day after a month, once safety was established. Blood and urine samples were collected routinely. Urine polyols, carbohydrate deficient transferrin (CDT), anti-thrombin III (ATIII), liver enzymes (ALT, AST), and complete blood count (CBC) were performed. Modified Brief Ataxia Rating Scale was used to assess ataxia in the 2 patients (P5, P6; P7 was not eligible for the test due to age). The modified BARS scale included Archimedes spiral test, but not the abnormalities of the ocular pursuit system and the scale range was 0-54. Goal attainment scale (GAS) was administered as described per study protocol (ClinicalTrials.gov Identifier: NCT04199000). Quantification of goal attainment levels is done on a 5-point scale ranging from −2 to +2, with 0 indicating the expected level of goal attainment. Three individual goals were established by each patient (parent) at baseline and the progress was annually assessed. Goals included: walking without assistance (Goal #1 P5, P6), communicating with strangers (Goal #2 P5, P6), independent toilet training (Goal #3 P5), to be able to have a healthy and independent life (Goal #3 P6), to be able to equally play with peers (Goal #1 P7), normalization of laboratory results (liver enzymes) (Goal #2 P7), and improved balance to stand and walk (Goal #3 P7)."}, "[2]": {"tested_on": "PMM2-CDG patients", "assay": "Safety and tolerability of epalrestat in pediatric patients", "procedure": "The primary objective of the study was to assess the efficacy and safety of epalrestat treatment in 3 PMM2-CDG pediatric subjects prior to a planned Phase III clinical trial (Oral epalrestat therapy in Pediatric Subjects with PMM2-CDG, NCT04925960). […] The ability of epalrestat to inhibit polyol production was monitored by evaluating urine polyol levels (sorbitol, mannitol), which are elevated in PMM2-CDG. Next, carbohydrate deficient transferrin, which is abnormal in PMM2-CDG, was evaluated in order to assess improvement of glycosylation following epalrestat treatment. […] Changes in the liver enzymes AST, ALT, which are frequently elevated in PMM2-CDG, were monitored both as part of a safety study and as part of monitoring clinical improvement in coagulation. Neurologic improvement was assessed by modified BARS scores in 2 patients (3rd patient was not eligible for the test due to age at the start of the trial). NPCRS was assessed at every visit to assess changes in the severity of the patients' phenotype. Additionally, the frequency of adverse events, changes in vital signs, complete blood count, and changes in BMI were monitored. […]"}, "[3]": {"tested_on": "PMM2-CDG patients", "assay": "Nijmegen Pediatric CDG Rating Scale (NPCRS) in patients on epalrestat", "source_text": "The primary objective of the study was to assess the efficacy and safety of epalrestat treatment in 3 PMM2-CDG pediatric subjects prior to a planned Phase III clinical trial (Oral epalrestat therapy in Pediatric Subjects with PMM2-CDG, NCT04925960). The secondary objective was to assess the ability of epalrestat to improve clinically relevant aspects of PMM2-CDG such as increased urine polyols (sorbitol, mannitol), abnormal glycosylation (carbohydrate deficient transferrin), abnormal coagulation (ATIII=antithrombin III), impaired liver function (ALT=Alanine Transaminase, AST=Aspartate Transaminase), neurologic function (Brief Ataxia Rating Scale=BARS), severity of phenotype (Nijmegen Pediatric CDG Rating Scale=NPCRS). The ability of epalrestat to inhibit polyol production was monitored by evaluating urine polyol levels (sorbitol, mannitol), which are elevated in PMM2-CDG. Next, carbohydrate deficient transferrin, which is abnormal in PMM2-CDG, was evaluated in order to assess improvement of glycosylation following epalrestat treatment. CDT mono-oligo/dioligo ratio and a-oligo/dioligo ratio are used to evaluate glycosylation abnormalities. Transferrin normally occurs with two glycan chains (di-oligo). In the case of glycosylation abnormalities, glycan chains are missing (A-oligo transferrin has no glycan chains, mono-oligo has one glycan chain, di-oligo has two glycan chains). The higher ratio of a-oligo/di-oligo and mono-oligo/di-oligo indicate glycosylation abnormalities are present. Therefore, improvement in a-oligo/di-oligo and mono-oligo/di-oligo ratios can be used to monitor improvement or worsening of glycosylation status. Changes in the liver enzymes AST, ALT, which are frequently elevated in PMM2-CDG, were monitored both as part of a safety study and as part of monitoring clinical improvement in coagulation. Neurologic improvement was assessed by modified BARS scores in 2 patients (3rd patient was not eligible for the test due to age at the start of the trial). NPCRS was assessed at every visit to assess changes in the severity of the patients' phenotype. Additionally, the frequency of adverse events, changes in vital signs, complete blood count, and changes in BMI were monitored.\nas §1, with “Quantification of goal attainment levels is done on a 5-point scale ranging from −2 to +2, with 0 indicating the expected level of goal attainment. Three individual goals were established by each patient (parent) at baseline and the progress was annually assessed. Goals included: walking without assistance (Goal #1 P5, P6), communicating with strangers (Goal #2 P5, P6), independent toilet training (Goal #3 P5), to be able to have a healthy and independent life (Goal #3 P6), to be able to equally play with peers (Goal #1 P7), normalization of laboratory results (liver enzymes) (Goal #2 P7), and improved balance to stand and walk (Goal #3 P7).” left out"}},
  "data": [
    {"molecule": "CC(/C=C1\\SC(=S)N(CC(=O)O)C1=O)=C\\c1ccccc1", "note": "[epalrestat]", "values": [
      {"measurement": "Goal attainment scale, Goal 2 (scale −2 to +2)", "setting": "[1]; P5, 12 months, 1.5 mg/kg day, communicating with strangers, baseline −2", "result": "−1"},
      {"measurement": "Goal attainment scale, Goal 3 (scale −2 to +2)", "setting": "[1]; P5, 12 months, 1.5 mg/kg day, independent toilet training, baseline −2", "result": "−2"},
      {"measurement": "Goal attainment scale, Goal 1 (scale −2 to +2)", "setting": "[1]; P5, 12 months, 1.5 mg/kg day, walking without assistance, baseline −2", "result": "−1"},
      {"measurement": "Goal attainment scale, Goal 2 (scale −2 to +2)", "setting": "[1]; P5, 24 months, 2 mg/kg day, communicating with strangers, baseline −2", "result": "−1"},
      {"measurement": "Goal attainment scale, Goal 3 (scale −2 to +2)", "setting": "[1]; P5, 24 months, 2 mg/kg day, independent toilet training, baseline −2", "result": "−2"},
      {"measurement": "Goal attainment scale, Goal 1 (scale −2 to +2)", "setting": "[1]; P5, 24 months, 2 mg/kg day, walking without assistance, baseline −2", "result": "−1"},
      {"measurement": "Goal attainment scale, Goal 2 (scale −2 to +2)", "setting": "[1]; P6, 12 months, 1.5 mg/kg day, communicating with strangers, baseline −1", "result": "−1"},
      {"measurement": "Goal attainment scale, Goal 3 (scale −2 to +2)", "setting": "[1]; P6, 12 months, 1.5 mg/kg day, healthy and independent life, baseline −2", "result": "−2"},
      {"measurement": "Goal attainment scale, Goal 1 (scale −2 to +2)", "setting": "[1]; P6, 12 months, 1.5 mg/kg day, walking without assistance, baseline −2", "result": "−1"},
      {"measurement": "Goal attainment scale, Goal 1 (scale −2 to +2)", "setting": "[1]; P7, 12 months, 1.5 mg/kg day, equally play with peers, baseline −2", "result": "−2"},
      {"measurement": "Goal attainment scale, Goal 3 (scale −2 to +2)", "setting": "[1]; P7, 12 months, 1.5 mg/kg day, improved balance to stand and walk, baseline −2", "result": "−1"},
      {"measurement": "Goal attainment scale, Goal 2 (scale −2 to +2)", "setting": "[1]; P7, 12 months, 1.5 mg/kg day, normalization of laboratory results (liver enzymes), baseline −2", "result": "−1"},
      {"measurement": "clinical improvement and quality of life (GAS, self-reported)", "setting": "[1]; all patients, words", "result": "all patients self-reported clinical improvement and quality of life improvement"},
      {"measurement": "tolerability of escalating doses", "setting": "[2]; three pediatric patients P5-7", "result": "well-tolerated"},
      {"measurement": "side-effects", "setting": "[2]; three pediatric patients P5-7, oral TID, long-term", "result": "No side-effects were observed"},
      {"measurement": "Total NPCRS (max 78)", "setting": "[3]; P5, 12 months, 1.5 mg/kg day, baseline 24", "result": 20},
      {"measurement": "Total NPCRS (max 78)", "setting": "[3]; P5, 24 months, 2 mg/kg day, baseline 24", "result": 18},
      {"measurement": "Total NPCRS (max 78)", "setting": "[3]; P5, 28 months, 3 mg/kg day, baseline 24", "result": 18},
      {"measurement": "Phenotype severity (NPCRS)", "setting": "[3]; P5, P7 improved, words", "result": "improvement was noted in 2 out of 3 patients"},
      {"measurement": "Total NPCRS (max 78)", "setting": "[3]; P6, 12 months, 1.5 mg/kg day, baseline 19", "result": 19},
      {"measurement": "Total NPCRS (max 78)", "setting": "[3]; P6, 18 months, 3 mg/kg day, baseline 19", "result": 18},
      {"measurement": "Total NPCRS (max 78)", "setting": "[3]; P7, 12 months, 1.5 mg/kg day, baseline 18", "result": 15}
    ]}
  ]
}
